Test results taken from patent US11993640B2, “Treating inflammatory lung disease” (United States Government as represented by the Department …, priority 2019, dated 2024).
“Also recorded” adds a separate entry of the source. One block for each compound: values may come before it. Non-standard residues stand in square brackets, D forms with d. Residues, ends and D or L forms follow the SMILES beside them. *: point of attachment. Phenylacetyl(2,3,4,5,6-F5) = O=C(Cc1c(F)c(F)c(F)c(F)c1F)*; Phe(F5) = N[C@@H](Cc1c(F)c(F)c(F)c(F)c1F)C(=O)O; Phe(4-Cl) = N[C@@H](Cc1ccc(Cl)cc1)C(=O)O; hArg = N=C(N)NCCCC[C@H](N)C(=O)O; 12Ado = NCCCCCCCCCCCC(=O)O; Nle = CCCC[C@H](N)C(=O)O; Orn = NCCC[C@H](N)C(=O)O; Abu = CC[C@H](N)C(=O)O

Columns and labels:
[1] = biological target: T1, membrane GHRH-receptors on human anterior pituitary cells (Homo sapiens, UniProt Q02643); test: Competitive receptor binding, displacement of 125I-[His1,Nle27]-hGH-RH(1-32)NH2 from human pituitary membranes
T1 construct: Human pituitary was purchased from the National Hormone and Peptide Program; tissue National Hormone and Peptide Program; host or cells: human pituitary membrane fractions
T1 sequence (Q02643 23-423): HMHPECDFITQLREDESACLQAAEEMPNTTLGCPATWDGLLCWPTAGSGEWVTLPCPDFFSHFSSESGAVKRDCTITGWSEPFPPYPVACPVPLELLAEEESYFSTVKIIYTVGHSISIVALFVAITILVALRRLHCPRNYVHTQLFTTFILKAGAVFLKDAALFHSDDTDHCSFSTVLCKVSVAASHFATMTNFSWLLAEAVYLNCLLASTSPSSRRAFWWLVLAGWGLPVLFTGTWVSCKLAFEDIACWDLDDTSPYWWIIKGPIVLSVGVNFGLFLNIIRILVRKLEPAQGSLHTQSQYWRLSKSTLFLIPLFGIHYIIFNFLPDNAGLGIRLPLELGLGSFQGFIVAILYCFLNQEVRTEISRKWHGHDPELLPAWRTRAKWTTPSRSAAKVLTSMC
Procedure: Receptor binding affinities in vitro. Preparation of human pituitary membrane fractions and receptor binding of analogs of GH-RH were performed (Halmos G, Rekasi Z, Szoke B, Schally A V. (1993) Receptor 3:87-97). Human pituitary was purchased from the National Hormone and Peptide Program. […] Relative affinities compared to hGH-RH(1-29)NH2 were calculated as the ratio of IC50 (dose causing 50% inhibition of specific binding to receptors) of the tested peptides to the IC50 of hGH-RH(1-29)NH2. The values were calculated from technical duplicate tubes.
Nineteen new AVR analogs of GHRH were tested in the receptor binding assay. Table 6 presents the IC50 values of GHRH antagonists to membrane GHRH-receptors binding on human anterior pituitary cells.

CFPAC-1 cells = test: In vitro cell viability, pancreatic cancer CFPAC-1; assay type: cell-based, human; settings: 5 μM, 72 h; relative to MIA602 = 1; Table 3A
Procedure: (§1) The inhibitory effects of the various synthesized GHRH antagonists were tested in cell proliferation assays in various human cancer cell lines including stomach cancer (KATOIII, N87), colon cancer (HT-29), urothelial cancer (J82, RT4), pancreatic cancer (PANC-1, CFPAC-1), prostatic cancer (PC3), breast cancer (MX-1, HCC1806), ovarian cancer (SK-OV-3, OVCAR-3) and lung cancer (HCC827, H460).
(§2) Cell culture. Human cancer cell lines including pancreatic (PANC-1 and CFPAC-1), lung (HCC827 and H460), stomach (NCI-N87 and KATOIII), urothelial (J82, RT4), prostatic (PC3), breast (MX-1 and HCC 1806), colorectal (HT-29), and ovarian (SK-OV-3 and OVCAR-3) were obtained from the American Type Culture Collection (ATCC) and cultured at 37° C. in a humidified 95% air/5% CO2 atmosphere in the medium recommended by ATCC.
(§3) In vitro cell viability. Cell viability was analyzed as follows: cancer cells including pancreatic (PANC-1 and CFPAC-1), lung (HCC827 and H460), stomach (NCI-N87 and KATOIII), urothelial (J82, RT4), prostatic (PC3) and breast (MX-1 and HCC 1806), colorectal (HT-29) and ovarian (SK-OV-3 and OVCAR-3) were grown on 96 well plates to ˜60% confluence, the cells were starved for 24 h in culture medium containing 0.5% FBS. Cells were then treated with GHRH antagonists MIA602 AVR compounds at concentrations of 1, 2.5 or 5 μM, or vehicle (0.1% DMSO) in quintuplicates for 72 hours. The medium was replaced every 48 hours. Cell viability was measured using CellTiter 96 aqueous one solution kit (Promega). Inhibitory effects of tested AVR compounds in comparison to that of MIA602 are presented as inhibitory potency.
(§4) Inhibitory effects of selected AVR compounds in comparison to that of MIA602 are presented as inhibitory potency (e.g., percentage of inhibition). […] The cell lines tested including lung cancer HCC827 (FIG. 2A), pancreatic cancer CFPAC-1 (FIG. 2B), stomach cancer N87 (FIG. 2C), colon cancer HT-29 (FIG. 2D), breast cancers MX-1 and HCC1806 (FIGS. 2E, F). Based on the results of cell proliferation assay after cancer cells were treated with antagonist at concentration of 5 μM for 72H, the relative inhibitory potency of AVR antagonists in comparison to MIA-602 is summarized in Table 3 A and B. Over 60 AVR compounds were tested in 12 cancer cell lines.
(§5) Based on the results of cell proliferation assay after cancer cells were treated with antagonist at concentration of 5 µM for 72H, * at concentration of 2 µM for 72 H.

HCC827 cells = test: In vitro cell viability, lung cancer HCC827; assay type: cell-based, human; settings: 5 μM, 72 h; relative to MIA602 = 1; Table 3A
Procedure: as §1, §2, §3, §4, §5

IC50 ([1]; human anterior pituitary membranes, mean of two to three determinations, read-out: IC50): 0.21 nM
Structure (SMILES): CCCC[C@H](NC(=O)[C@@H](NC(=O)[C@H](CC(=O)O)NC(=O)[C@H](CCC(N)=O)NC(=O)[C@H](CC(C)C)NC(=O)[C@H](CC(C)C)NC(=O)[C@H](CCCN)NC(=O)[C@H](Cc1c[nH]cn1)NC(=O)[C@H](C)NC(=O)[C@H](CO)NC(=O)[C@H](CC(C)C)NC(=O)[C@H](CCC(N)=O)NC(=O)[C@H](CC)NC(=O)[C@H](CC(C)C)NC(=O)[C@@H](NC(=O)[C@H](CCCN)NC(=O)[C@H](Cc1c[nH]cn1)NC(=O)[C@H](Cc1c(F)c(F)c(F)c(F)c1F)NC(=O)[C@H](CCCCNC(=N)N)NC(=O)[C@H](C)NC(=O)[C@@H](NC(=O)[C@H](Cc1ccc(Cl)cc1)NC(=O)[C@@H](NC(=O)[C@H](C)NC(=O)[C@H](CC(=O)O)NC(=O)[C@@H](CCCNC(=N)N)NC(=O)[C@H](Cc1ccc(O)cc1)NC(=O)CCCCCCCCCCCNC(=O)Cc1c(F)c(F)c(F)c(F)c1F)[C@@H](C)CC)[C@@H](C)O)C(C)C)[C@@H](C)CC)C(=O)N[C@H](CCCNC(=N)N)C(=O)N[C@@H](CCCCNC(=N)N)C(=O)NC [AVR-542, 5FPhAC-Ada-Tyr-DArg-Asp-Ala-Ile-Cpa-Thr-Ala-Har-5FPhe-His-Orn-Val-Leu-Abu-Gln-Leu-Ser-Ala-His-Orn-Leu-Leu-Gln-Asp-Ile-Nle-DArg-Har-NHCH3] ({Phenylacetyl(2,3,4,5,6-F5)-12Ado}-Y[dR]DAI[Phe(4-Cl)]TA[hArg][Phe(F5)]H[Orn]VL[Abu]QLSAH[Orn]LLQDI[Nle][dR][hArg]-NHMe)
Relative inhibitory potency, Pancreatic CFPAC-1 (CFPAC-1 cells): 1.312
Relative inhibitory potency, Lung HCC827 (HCC827 cells): 2.649

Structure (SMILES): CCCC[C@H](NC(=O)[C@@H](NC(=O)[C@H](CC(=O)O)NC(=O)[C@H](CCC(N)=O)NC(=O)[C@H](CC(C)C)NC(=O)[C@H](CC(C)C)NC(=O)[C@H](CCCN)NC(=O)[C@H](Cc1c[nH]cn1)NC(=O)[C@H](C)NC(=O)[C@H](CO)NC(=O)[C@H](CC(C)C)NC(=O)[C@H](CCC(N)=O)NC(=O)[C@H](CC)NC(=O)[C@H](CC(C)C)NC(=O)[C@@H](NC(=O)[C@H](CCCN)NC(=O)[C@H](Cc1c[nH]cn1)NC(=O)[C@H](Cc1c(F)c(F)c(F)c(F)c1F)NC(=O)[C@H](CCCCNC(=N)N)NC(=O)[C@H](C)NC(=O)[C@@H](NC(=O)[C@H](Cc1ccc(Cl)cc1)NC(=O)[C@@H](NC(=O)[C@H](C)NC(=O)[C@H](CC(=O)O)NC(=O)[C@@H](CCCNC(=N)N)NC(=O)[C@H](Cc1ccc(O)cc1)NC(=O)CCCCCCCCCCCNC(=O)Cc1c(F)c(F)c(F)c(F)c1F)[C@@H](C)CC)[C@@H](C)O)C(C)C)[C@@H](C)CC)C(=O)N[C@H](CCCNC(=N)N)C(=O)N[C@@H](CCCCNC(=N)N)C(=O)NCCCCCCCCCCCC(N)=O [AVR-552, 5FPhAC-Ada-Tyr-DArg-Asp-Ala-Ile-Cpa-Thr-Ala-Har-5FPhe-His-Orn-Val-Leu-Abu-Gln-Leu-Ser-Ala-His-Orn-Leu-Leu-Gln-Asp-Ile-Nle-DArg-Har-Ada-NH2] ({Phenylacetyl(2,3,4,5,6-F5)-12Ado}-Y[dR]DAI[Phe(4-Cl)]TA[hArg][Phe(F5)]H[Orn]VL[Abu]QLSAH[Orn]LLQDI[Nle][dR][hArg][12Ado]-NH2)
Binding affinity to membrane receptors of human pituitary cells [1]: higher binding affinity in comparison to MIA-602; also recorded: highest binding affinities
Relative inhibitory potency, Pancreatic CFPAC-1 (CFPAC-1 cells): 1.57
Relative inhibitory potency, Lung HCC827 (HCC827 cells): 4.376

Structure (SMILES): CCCC[C@H](NC(=O)[C@@H](NC(=O)[C@H](CC(=O)O)NC(=O)[C@H](CCC(N)=O)NC(=O)[C@H](CC(C)C)NC(=O)[C@H](CC(C)C)NC(=O)[C@H](CCCN)NC(=O)[C@H](Cc1c[nH]cn1)NC(=O)[C@H](C)NC(=O)[C@H](CO)NC(=O)[C@H](CC(C)C)NC(=O)[C@H](CCC(N)=O)NC(=O)[C@H](CC)NC(=O)[C@H](CC(C)C)NC(=O)[C@@H](NC(=O)[C@H](CCCN)NC(=O)[C@H](Cc1c[nH]cn1)NC(=O)[C@H](Cc1ccc(OC)cc1)NC(=O)[C@H](CCCCNC(=N)N)NC(=O)[C@H](C)NC(=O)[C@@H](NC(=O)[C@H](Cc1c(F)c(F)c(F)c(F)c1F)NC(=O)[C@@H](NC(=O)[C@H](C)NC(=O)[C@H](CC(=O)O)NC(=O)[C@@H](CCCNC(=N)N)NC(=O)[C@H](Cc1ccc(O)cc1)NC(=O)CCCCCCCCCCCNC(=O)Cc1c(F)c(F)c(F)c(F)c1F)[C@@H](C)CC)[C@@H](C)O)C(C)C)[C@@H](C)CC)C(=O)N[C@H](CCCNC(=N)N)C(=O)N[C@@H](CCCCNC(=N)N)C(=O)NCCCCCCCCCCCC(N)=O [AVR-553, 5FPhAC-Ada-Tyr-DArg-Asp-Ala-Ile-5FPhe-Thr-Ala-Har-Tyr(Me)-His-Orn-Val-Leu-Abu-Gln-Leu-Ser-Ala-His-Orn-Leu-Leu-Gln-Asp-Ile-Nle-DArg-Har-Ada-NH2] ({Phenylacetyl(2,3,4,5,6-F5)-12Ado}-Y[dR]DAI[Phe(F5)]TA[hArg]Y(Me)H[Orn]VL[Abu]QLSAH[Orn]LLQDI[Nle][dR][hArg][12Ado]-NH2)
Binding affinity to membrane receptors of human pituitary cells [1]: higher binding affinity in comparison to MIA-602; also recorded: highest binding affinities
